pIC50: −log10 of the molar value.
Tests used:
NIH3T3 fibroblasts = assay: Inhibition test of compounds on NIH3T3 fibroblasts (MTT method); assay type: cell-based; settings: Mus musculus, relative IC50 obtained from multiple and IC50 of fluorofenidone on a certain plate
Method: Inhibition Test of Compounds on NIH3T3 fibroblasts
An MTT method is used and comprises steps of: culturing cells in DMEM culture medium including 5% calf serum and preparing the cells into cell suspension of 3×10^4/ml; inoculating in 96-well plate according to 100 μl/well; transferring new culture medium including compounds with different concentration, fluorofenidone and 1% calf serum after cells are adhered, wherein three repeated wells are provided for each concentration; respectively adding 100 μl of MTT solution in each well after 48 hours and 72 hours of administrating (the culture medium is prepared into 5 mg/ml and kept in dark after filtering), sucking out MTT after 4 hours; adding 150 μl of DMSO which is the dissolving liquid of MTT; after 10 min and MTT is completely dissolved, measuring OD value by ELISA reader; calculating IC50 values of fluorofenidone and measured compounds according to inhibition ratio; calculating multiple of activities of measured compounds and fluorofenidone according to IC50 values of fluorofenidone and measured compounds; and obtaining relative IC50 value of measured compounds according to multiple and IC50 value of fluorofenidone on a certain plate.

[1] = test system: rat unilateral ureteral obstruction renal fibrosis model; assay: Treatment effect in a rat unilateral ureteral obstruction renal fibrosis model (HE and Masson staining); assay type: in vivo
Method: Observation of Treatment Effect of Compound 13 in a Rat Unilateral Ureteral Obstruction Renal Fibrosis Model
Nine male SD rats of 188-213 g, coming from Hunan Slac Laboratory Animals Co., Ltd., are illuminated for 12 hours every day; feed is provided by Shanghai Slac Laboratory Animals Co., Ltd.; and drinking water is provided by Department of Laboratory Animal Science of Central South University.
(1) Randomization: nine rats are divided into three groups at random, namely a normal group (n=3); a model group (n=3) and a treatment group (n=3) treated by compound 13 of 15 mg/kg; three rats are in a hutch; and the experimental animals are adaptively fed for two days. […]
HE stained slices of renal tissues are successively observed in fives fields of view of renal tubulointerstitium on upper left side, upper right side, lower left side, lower right side and middle portion by a low power lens and are evaluated according to eight indexes of renal interstitium lesion: renal tubular epithelial cell vacuolar degeneration, renal tubular ectasia, renal tubular atrophy, red cell cast, protein cast, interstitial edema, interstitial fibrosis and interstitial inflammatory cell infiltration; an average value is calculated as the index of renal tubulointerstitial lesion of the sample; and the evaluation standard is based on the reference of Radford M G Jr, Donadio J V Jr, Bergstralh E J, et al. Predicting renal outcome in IgA nephropathy. […]
Masson stained slices of renal tissues are observed in 20 fields of vision for each sample at random under 400× light microscope; percent of blue-stained collagens in the fields of vision is calculated; an average value is determined after semi-quantitative evaluation: no positive staining, 0; <25%, 1; 25-50%, 2; 50-75%, 3; >75%, 4; and the evaluation standard is based on references. […]

Structure (SMILES)	pIC50 (NIH3T3 fibroblasts; 48 hours after administration)	pIC50 (NIH3T3 fibroblasts; 72 hours after administration)	Score (X ± S), renal interstitium collagens of left kidneys, MASSON staining ([1]; SD rats, UUO, 15 mg/kg intragastric once per day for 12 days, n=3, model group 2.45 ± 0.38, normal group 0.25 ± 0.00, p < 0.01 vs model)	Score (X ± S), index of renal tubulointerstitial lesions of obstruction kidneys, HE staining ([1]; SD rats, UUO, 15 mg/kg intragastric once per day for 12 days, n=3, model group 9.00 ± 1.00, normal group 0.33 ± 0.12, p < 0.01 vs model)	Treatment effect on renal fibrosis (conclusion) ([1]; rat UUO model, 15 mg/kg)
O=c1ccc(C(F)(F)F)cn1Cc1ccc([N+](=O)[O-])cc1 [Compound 1, 1-(4-nitrobenzyl)-5-(trifluoromethyl)pyridin-2(1H)-one]	3.26	3.33			
Nc1ccc(Cn2cc(C(F)(F)F)ccc2=O)cc1 [Compound 2, 1-(4-amino-benzyl)-5-(trifluoromethyl)pyridin-2(1H)-one]	2.86	2.82			
O=c1ccc(C(F)(F)F)cn1Cc1ccc(NCCCN2CCOCC2)cc1 [Compound 3, 1-(4-((3-morpholinylpropyl)amino)benzyl)-5-(trifluoromethyl)pyridin-2(1H)-one]	3.37	3.64			
O=c1ccc(C(F)(F)F)cn1Cc1ccc(NCCCN2CCCCC2)cc1 [Compound 4, 1-(4-(((3-piperidin-1-yl)propyl)amino)benzyl)-5-(trifluoromethyl)pyridin-2(1H)-one]	3.02	3.84			
CN1CCN(CCCNc2ccc(Cn3cc(C(F)(F)F)ccc3=O)cc2)CC1 [Compound 5, 1-(4-((3-(4-methyl-piperazin-1-yl)propyl)amino)benzyl)-5-(trifluoromethyl)pyridin-2(1H)-one]	3.85	4.01			
O=c1ccc(C(F)(F)F)cn1Cc1ccc(NCCO)cc1 [Compound 6, 1-(4-((2-hydroxyethyl)amino)benzyl)-5-(trifluoromethyl)pyridin-2(1H)-one]	3.00	3.20			
O=c1ccc(C(F)(F)F)cn1Cc1ccc(NCCN2CCCCC2)cc1 [Compound 7, 1-(4-((2-(piperidyl-1-yl)ethyl)amino)benzyl)-5-(trifluoromethyl)pyridin-2(1H)-one]	2.38	3.47			
O=c1ccc(C(F)(F)F)cn1Cc1ccc(NCCN2CCOCC2)cc1 [Compound 8, 1-(4-((2-morpholinylethyl)amino)benzyl)-5-(trifluoromethyl)pyridin-2(1H)-one]	3.44	3.64			
CN1CCN(CCNc2ccc(Cn3cc(C(F)(F)F)ccc3=O)cc2)CC1 [Compound 9, 1-(4-((2-(4-methyl-piperazin-1-yl)ethyl)amino)benzyl)-5-(trifluoromethyl)pyridin-2(1H)-one]	3.74	3.92			
O=c1ccc(C(F)(F)F)cn1Cc1ccc(NCCN2CCN(CCO)CC2)cc1 [Compound 11, 1-(4-((2-(4-(2-hydroxyethyl)piperazin-1-yl)ethyl)amino)benzyl)-5-(trifluoromethyl)pyridin-2(1H)-one]	3.28	3.88			
CC(=O)Nc1ccc(Cn2cc(C(F)(F)F)ccc2=O)cc1 [Compound 13, 1-(4-acetamide-benzyl)-5-(trifluoromethyl)pyridin-2(1H)-one]	3.89	4.17	1.52 ± 0.16^⋆⋆**	7.00 ± 0.35^⋆⋆**	can effectively treat renal fibrosis
O=c1ccc(C(F)(F)F)cn1Cc1c(Cl)cccc1Cl [Compound 14, 1-(2,6-dichlorobenzyl)-5-(trifluoromethyl)pyridin-2(1H)-one]	3.46	3.74			
O=c1ccc(C(F)(F)F)cn1Cc1ccc(F)cc1 [Compound 15, 1-(4-fluorobenzyl)-5-(trifluoromethyl)pyridin-2(1H)-one]	2.97	2.96			
O=c1ccc(C(F)(F)F)cn1Cc1ccccc1[N+](=O)[O-] [Compound 16, 1-(2-nitrobenzyl)-5-(trifluoromethyl)pyridin-2(1H)-one]	2.99	2.99			
Nc1ccccc1Cn1cc(C(F)(F)F)ccc1=O [Compound 17, 1-(2-aminobenzyl)-5-(trifluoromethyl)pyridin-2(1H)-one]	2.74	2.90			
O=c1ccc(C(F)(F)F)cn1Cc1cccc(Cl)c1 [Compound 18, 1-(3-chlorobenzyl)-5-(trifluoromethyl)pyridin-2(1H)-one]	2.84	2.87			
COc1ccc(Cn2cc(C(F)(F)F)ccc2=O)cc1 [Compound 19, 1-(4-methoxybenzyl)-5-(trifluoromethyl)pyridin-2(1H)-one]	3.52	3.42			
O=c1ccc(C(F)(F)F)cn1Cc1ccccc1F [Compound 20, 1-(2-fluorobenzyl)-5-(trifluoromethyl)pyridin-2(1H)-one]	3.56	3.41			
O=c1ccc(C(F)(F)F)cn1Cc1ccccc1NCCO [Compound 21, 1-(2-(2-hydroxyethylamino)benzyl)-5-(trifluoromethyl)pyridin-2(1H)-one]	3.18	3.23			
O=c1ccc(C(F)(F)F)cn1Cc1ccccc1NCCN1CCNCC1 [Compound 22, 1-(2-(2-(piperazin-1-yl)ethylamino)benzyl)-5-(trifluoromethyl)pyridin-2(1H)-one]	3.77	3.54			
O=c1ccc(C(F)(F)F)cn1Cc1ccccc1NCCN1CCOCC1 [Compound 25, 1-(2-(2-morpholinoethylamino)benzyl)-5-(trifluoromethyl)pyridin-2(1H)-one]	3.43	3.58			
Cc1ccc(=O)n(-c2cccc(F)c2)c1 [Fluorofenidone, reference compound]	2.35	2.45			
O=c1ccc(C(F)(F)F)cn1Cc1ccccc1 [Structure IV, reference compound]	2.94	3.14			
